According to US20240343704A1, “HALO-SUBSTITUTED AMINO PYRIDINE COMPOUNDS AS INHIBITORS OF THE HAEMATOPOIETIC PROGENITOR KINASE 1 (HPK1)” (priority 2021, published 2024):

Legend:
Lck (h) = Lck (h) (Homo sapiens, UniProt P06239); test: Lck Human  Kinase Enzymatic Radiometric Assay; type: biochemical; conditions: for IC50: read-out: Lck IC50 nM Range*; for LcK IC50/HPK IC50 selectivity: ratio of Lck IC50 to HPK1 IC50
Description: Lck (h) is incubated with 50 mM Tris pH 7.5, 0.1 mM EGTA, 0.1 mM Na3VO4, 250 uM KVEKIGEGTYGVVYK (Cdc2 peptide), 10 mM MgAcetate and [gamma-33P]-ATP (specific activity and concentration as required). The reaction is initiated by the addition of the Mg/ATP mix. After incubation for 40 minutes at RT, the reaction is stopped by the addition of phosphoric acid to a concentration of 0.5%. 10 uL of the reaction is then spotted onto a P30 filtermat and washed four times for 4 minutes in 0.425% phosphoric acid and once in methanol prior to drying and scintillation counting. For more details on the kinase assay procedures see: Gao, Y. et. al.; Biochem J., 451 (2): 313-328, 2013.

[1] = biological target: T1, Recombinant (1-346) HPK1 (h) (Homo sapiens, UniProt Q92918); test: HPK1 Human STE Kinase Enzymatic Radiometric Assay; type: biochemical; conditions: read-out: HPK1 IC50 nM Range*
T1 construct: Recombinant (1-346) HPK1 (h) is incubated with 8 mM MOPS pH 7.0
T1 sequence (Q92918 1-346): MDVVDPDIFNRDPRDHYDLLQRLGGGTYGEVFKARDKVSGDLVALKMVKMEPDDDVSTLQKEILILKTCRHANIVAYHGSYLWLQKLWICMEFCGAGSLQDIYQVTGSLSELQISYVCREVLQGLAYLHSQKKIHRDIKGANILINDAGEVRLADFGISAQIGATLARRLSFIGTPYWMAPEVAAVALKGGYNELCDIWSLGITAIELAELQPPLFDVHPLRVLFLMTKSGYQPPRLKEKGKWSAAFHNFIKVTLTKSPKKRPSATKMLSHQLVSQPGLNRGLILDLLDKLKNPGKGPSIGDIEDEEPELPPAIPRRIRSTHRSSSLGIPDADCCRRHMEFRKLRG
Description: A stock solution of 10 mM of test compound is prepared in DMSO. The compound plate was prepared by 3-fold and 9-point serial dilutions. […] The reaction is initiated by The addition of the Mg/ATP mix. After incubation for 40 minutes at RT, the reaction is stopped by the addition of phosphoric acid to a concentration of 0.5%.

Sequence of Lck (h) (P06239 whole entry): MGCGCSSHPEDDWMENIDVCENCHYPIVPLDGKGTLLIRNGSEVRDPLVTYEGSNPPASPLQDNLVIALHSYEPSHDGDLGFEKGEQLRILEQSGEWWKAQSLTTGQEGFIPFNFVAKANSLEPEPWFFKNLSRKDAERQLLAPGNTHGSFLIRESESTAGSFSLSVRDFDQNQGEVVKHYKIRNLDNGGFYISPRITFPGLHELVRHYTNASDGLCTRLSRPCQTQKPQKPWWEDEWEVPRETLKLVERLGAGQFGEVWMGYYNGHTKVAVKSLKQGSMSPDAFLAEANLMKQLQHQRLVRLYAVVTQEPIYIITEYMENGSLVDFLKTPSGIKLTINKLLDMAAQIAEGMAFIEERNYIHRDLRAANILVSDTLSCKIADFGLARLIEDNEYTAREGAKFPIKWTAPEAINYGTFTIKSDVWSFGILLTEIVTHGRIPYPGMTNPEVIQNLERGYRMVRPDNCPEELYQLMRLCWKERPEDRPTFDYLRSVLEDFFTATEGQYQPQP

SMILES	IC50 (Lck (h)) [nM]	IC50 [1] [nM]	LcK IC50/HPK IC50 selectivity (Lck (h))
Nc1nc(F)c(-c2ccc(C3=CCN(CCO)CC3)cc2)cc1-c1ccc2c(c1)CCNC2=O [I-138, 6-(2-amino-6-fluoro-5-(4-(1-(2-hydroxyethyl)-1,2,3,6-tetrahydropyridin-4-yl)phenyl)pyridin-3-yl)-3,4-dihydroisoquinolin-1(2H)-one]	> 1000	0.1 to 10	
Nc1nc(F)c(-c2ccc(C3=CCN(CC(F)F)CC3)cc2)cc1-c1ccc2c(c1)CCNC2=O [I-73, 6-(2-amino-5-(4-(1-(2,2-difluoroethyl)-1,2,3,6-tetrahydropyridin-4-yl)phenyl)-6-fluoropyridin-3-yl)-3,4-dihydroisoquinolin-1(2H)-one]	> 1000	0.1 to 10	
CC(C)N1CC=C(c2ccc(-c3cc(-c4ccc5c(c4)CCNC5=O)c(N)nc3F)cc2)CC1 [I-81, 6-(2-amino-6-fluoro-5-(4-(1-isopropyl-1,2,3,6-tetrahydropyridin-4-yl)phenyl)pyridin-3-yl)-3,4-dihydroisoquinolin-1(2H)-one]	> 1000	0.1 to 10	
Nc1ncc(-c2ccc(N3C[C@H]4COC[C@H]4C3)cc2)cc1-c1ccc2c(c1)CCNC2=O [reference compound]			51
Nc1ncc(-c2ccc(N3CCNCC3)c(C(F)(F)F)c2)cc1-c1ccc2c(c1)CCNC2=O [reference compound]			145
Nc1nc(F)c(-c2ccc(N3CCNCC3)c(C(F)(F)F)c2)cc1-c1ccc2c(c1)CCNC2=O [drawing 2685]			2580
Nc1nc(F)c(-c2ccc3c(c2)OCCCO3)cc1-c1ccc2c(c1)CCNC2=O [drawing 2687]			1429
Nc1nc(F)c(-c2ccc(N3CCN4CCCC4C3)cc2)cc1-c1ccc2c(c1)CCNC2=O (stereo not shown) [drawing 2689]			1480
Nc1nc(F)c(-c2ccc(N3C[C@@H]4CCO[C@@H]4C3)cc2)cc1-c1ccc2c(c1)CCNC2=O [drawing 2683]			1429
Nc1nc(F)c(-c2ccc(N3CCCN4CCCC4C3)cc2)cc1-c1ccc2c(c1)CCNC2=O (stereo not shown) [drawing 2691]			1073
Nc1ncc(-c2ccc(N3CCCCC3)cc2)cc1-c1ccc2c(c1)CCNC2=O [reference compound]			79
Nc1ncc(-c2ccc(N3CCCN4CCCC4C3)cc2)cc1-c1ccc2c(c1)CCNC2=O (stereo not shown) [reference compound]			92
Nc1ncc(-c2ccc(C3CCNCC3)cc2)cc1-c1cc2c(cc1F)C(=O)NCC2 [reference compound]			27
Nc1ncc(-c2ccc(C3CCNCC3)cc2)cc1-c1ccc2c(c1)CCNC2=O [reference compound]			45
Nc1ncc(-c2ccc3c(c2)OCCCO3)cc1-c1ccc2c(c1)CCNC2=O [reference compound]			485
Nc1ncc(-c2ccc(N3C[C@@H]4CCO[C@@H]4C3)cc2)cc1-c1ccc2c(c1)CCNC2=O [reference compound]			34

Second part, the compound after the results:

IC50 (Lck (h)) [nM]	IC50 [1] [nM]	LcK IC50/HPK IC50 selectivity (Lck (h))	SMILES
> 1000	0.1 to 10		CC(C)N1CCC(C)(c2ccc(-c3cc(-c4ccc5c(c4)CCNC5=O)c(N)nc3F)cc2)C1 (stereo not shown) [I-164, 6-(2-amino-6-fluoro-5-(4-(1-isopropyl-3-methylpyrrolidin-3-yl)phenyl)pyridin-3-yl)-3,4-dihydroisoquinolin-1(2H)-one]
> 1000	11 to 100		Cc1cc(-c2cc(-c3cc4c(cc3F)C(=O)NCC4)c(N)nc2F)ccn1 [I-313, 6-(6-amino-2-fluoro-2′-methyl-[3,4′-bipyridin]-5-yl)-7-fluoro-3,4-dihydroisoquinolin-1(2H)-one]
> 1000	0.1 to 10		CCN1CCOCC1c1ccc(-c2cc(-c3ccc4c(c3)CCNC4=O)c(N)nc2F)cc1 (stereo not shown) [I-131, 6-(2-amino-5-(4-(4-ethylmorpholin-3-yl)phenyl)-6-fluoropyridin-3-yl)-3,4-dihydroisoquinolin-1(2H)-one]
> 1000	11 to 100		Nc1nc(F)c(-c2ccc(OC3CN(C4COC4)C3)cc2)cc1-c1ccc2c(c1)CCNC2=O [I-318, 6-(2-amino-6-fluoro-5-(4-((1-(oxetan-3-yl)azetidin-3-yl)oxy)phenyl)pyridin-3-yl)-3,4-dihydroisoquinolin-1(2H)-one]
> 1000	0.1 to 10		Nc1nc(F)c(-c2ccc(N3CCN(CCCC(F)F)CC3)cc2)cc1-c1cc(F)c2c(c1)CCNC2=O [I-440, 6-(2-amino-5-(4-(4-(4,4-difluorobutyl)piperazin-1-yl)phenyl)-6-fluoropyridin-3-yl)-8-fluoro-3,4-dihydroisoquinolin-1(2H)-one]
> 1000	0.1 to 10		CC(C)N1CCc2cc(-c3cc(-c4cc5c(cc4F)C(=O)NCC5)c(N)nc3F)ccc2C1 [I-299, 6-(2-amino-6-fluoro-5-(2-isopropyl-1,2,3,4-tetrahydroisoquinolin-6-yl)pyridin-3-yl)-7-fluoro-3,4-dihydroisoquinolin-1(2H)-one]
> 1000	0.1 to 10		CN(C)Cc1nc(-c2cc(-c3ccc4c(c3)CCNC4=O)c(N)nc2F)ccc1N1CCOCC1 [I-551, 6-(6′-amino-6-((dimethylamino)methyl)-2′-fluoro-5-morpholino-[2,3′-bipyridin]-5′-yl)-3,4-dihydroisoquinolin-1(2H)-one]
> 1000	0.1 to 10		C[C@@H]1CN(c2ccc(-c3cc(-c4ccc5c(c4)CCNC5=O)c(N)nc3F)cc2)C[C@H](C)N1C [I-96, 6-(2-amino-6-fluoro-5-(4-((3R,5S)-3,4,5-trimethylpiperazin-1-yl)phenyl)pyridin-3-yl)-3,4-dihydroisoquinolin-1(2H)-one]
> 1000	0.1 to 10		CC(C)N1CCN(c2ccc(-c3cc(-c4ccc5c(=O)[nH]cc(F)c5c4)c(N)nc3F)cc2)CC1 [I-379, 6-(2-amino-6-fluoro-5-(4-(4-isopropylpiperazin-1-yl)phenyl)pyridin-3-yl)-4-fluoroisoquinolin-1(2H)-one]
> 1000	0.1 to 10		CCN1CCCC(c2ccc(-c3cc(-c4ccc5c(c4)CCNC5=O)c(N)nc3F)cc2)C1 (stereo not shown) [I-52, 6-(2-amino-5-(4-(1-ethylpiperidin-3-yl)phenyl)-6-fluoropyridin-3-yl)-3,4-dihydroisoquinolin-1(2H)-one]
> 1000	11 to 100		Nc1ncc(-c2ccc(N3CCOCC3)cc2)c(F)c1-c1ccc2c(c1)CCNC2=O [I-2, 6-(2-amino-4-fluoro-5-(4-morpholinophenyl)pyridin-3-yl)-3,4-dihydroisoquinolin-1(2H)-one]
> 1000	11 to 100		Nc1nc(F)c(-c2ccc(C3CCCN(CC(F)(F)F)C3)cc2)cc1-c1ccc2c(c1)CCNC2=O (stereo not shown) [I-89, 6-(2-amino-6-fluoro-5-(4-(1-(2,2,2-trifluoroethyl)piperidin-3-yl)phenyl)pyridin-3-yl)-3,4-dihydroisoquinolin-1(2H)-one]
> 1000	0.1 to 10		CC(C)N1CCN(c2ccc(-c3cc(-c4cc5cc[nH]c(=O)c5cn4)c(N)nc3F)cc2)CC1 [I-401, 6-(2-amino-6-fluoro-5-(4-(4-isopropylpiperazin-1-yl)phenyl)pyridin-3-yl)-2,7-naphthyridin-1(2H)-one]
> 1000			Nc1nc(F)c(-c2ccc(N3CCN(CCCC(F)F)CC3)cc2)cc1-c1cc2c(cc1F)C(=O)NCC2 [I-441, 6-(2-amino-5-(4-(4-(4,4-difluorobutyl)piperazin-1-yl)phenyl)-6-fluoropyridin-3-yl)-7-fluoro-3,4-dihydroisoquinolin-1(2H)-one]
